Measurements reported in patent publication US20060069132A1, “Azolecarboxamide herbicides” (priority 2004, published 2006).

Assays:
wheat cv. Retical = assay: Test H safening on wheat by naphthalic anhydride seed treatment, pre-/postemergence; type: in vivo, Triticum aestivum; set-up: key to Response of wheat, Without naphthalic anhydride seed treatment: 0 = no effect, 100 = complete plant death, vs untreated control
Method: This test evaluated the safening of compounds of the invention on wheat (Triticum aestivumL.) cv. ‘Retical’ by seed treatment with naphthalic anhydride. Some of the wheat seed was treated with napthalic anhydride as a 1% by weight seed dressing. The wheat seed were planted in pots containing pasteurized Sassafras sandy loam soil. For postemergence testing the plants were grown 8 days to the 2-leaf stage at time of treatment. Preemergence treatments were applied the same day that the seeds were planted. Treatments were applied by spraying the test compounds formulated in a non-phytotoxic solvent mixture, using a flat fan nozzle and a spray volume of 280 L/ha. The preemergence treatments were triply replicated and the results subsequently averaged. The pots were placed on a growth chamber bench using a complete randomized block design for the preemergence test except for the first replicate, which was unrandomized. The plants were grown in the growth chamber and watered as needed with a dilute nutrient solution containing 200 ppm of N. Illumination was provided by fluorescent lamps giving 200-300 μE/m^2/S of photosynthetically active radiation over a 14-hour photoperiod. The temperature was maintained at 23±2° C. during the day and 17±2° C. at night. The effects of the treatments were rated 25 days after preemergence treatment and 14 days after postemergence treatment. The plant response was visually rated in comparison to untreated controls using a scale of 0 to 100, with 0 representing no effect and 100 representing complete plant death. The results for the compounds tested preemergence are listed in Table H1, and the results for the compounds tested postemergence are listed in Table H2.

Surinam grass (BRADC) = assay: Test J Compounds 2 and 6 alone and in combination with other herbicides, foliage spray; type: in vivo, Urochloa decumbens; set-up: key to BRADC Obsd.: 0 = no effect, 100 = complete control; conditions: for BRADC Obsd.: applied alone; for observed effect of mixture compared with additive effect expected from Colby's Equation: Surinam grass, foliage spray, 15 days after treatment
Source text: Colby's Equation was used to calculate the expected additive herbicidal effect of the mixtures of Compound 6 with Harmony® Extra (i.e. a 2:1 mixture by weight of thifensulfuron-methyl and tribenuron-methyl). Colby's Equation (Colby, S. R. “Calculating Synergistic and Antagonistic Responses of Herbicide Combinations,” Weeds, 15(1), pp 20-22 (1967)) calculates the expected additive effect of herbicidal mixtures, and for two active ingredients is of the form: Pa+b=Pa+Pb−(PaPb/100) wherein • Pa+b is the percentage effect of the mixture expected from additive contribution of the individual components, • Pa is the observed percentage effect of the first active ingredient at the same use rate as in the mixture, and • Pb is the observed percentage effect of the second active ingredient at the same use rate as in the mixture.
Seeds of test plants consisting of barnyardgrass (ECHCG; Echinochloa crus-galli (L.) Beauv.), blackgrass (ALOMY; Alopecurus myosuroides Huds.), Surinam grass (BRADC; Urochloa decumbens (Staph) R. D. Webster, previously named Brachiaria decumbens Stapf), cocklebur (XANST, Xanthium strumarium L.), corn (ZEAMD, Zea mays L. cv. ‘Pioneer 33G26’), large crabgrass (DIGSA, Digitaria sanguinalis (L.) Scop.), giant foxtail (SETFA, Setaria faberi Herrm.), lambsquarters (CHEAL, Chenopodium album L.), morningglory (IPOCO, Ipomoea coccinea L.), pigweed (AMARE, Amaranthus retroflexus L.), velvetleaf (ABUTH, Abutilon theophrasti Medik.) wheat (TRZAS, Triticum aestivum L. cv. ‘Recital’) and wild oat (AVEFA, Avena fatua L.) were planted in Redi-Earth® planting medium (Scotts Company, 14111 Scottslawn Road, Marysville, Ohio 43041) comprising spaghnum peat moss and vermiculite. Seeds of small-seeded species were planted about 1 cm deep; larger seeds were planted about 2.5 cm deep. Plants were grown in a greenhouse using supplemental lighting to maintain a photoperiod of about 14 hours; daytime and nighttime temperatures were about 24-30° C. and 22-25° C., respectively. Balanced fertilizer was applied through the watering system. The plants were grown for 7 to 11 days so that at time of treatment the plants ranged in height from 2 to 18 cm (1- to 4-leaf stage). Treatments consisted of Compounds 2 and 6 (technical material), atrazine (90DF), terbacil (Sinbar® 80DF), hexazinone (Velpar® 75WG), diuron (Karmex® 80WP) and paraquat (Gramoxone® Extra, 37%) alone and in combination, suspended or dissolved in an aqueous solvent comprising a nonionic surfactant and applied as a foliage spray using a volume of 541 L/ha. Each treatment was triply replicated. […] Treated plants and controls were maintained in the greenhouse and watered as needed with care to not wet the foliage for the first 24 hours after treatment. The effects on the plants 15 days after treatment were visually compared to untreated controls. Plant response ratings, listed in Table J as the means of the thee replicates, are based on a scale of 0 to 100 where 0 is no effect and 100 is complete control. Also listed in Table J are the expected effects for the mixtures calculated using Colby's Equation.

wild oat (AVEFA) = assay: as above; type: in vivo, Avena fatua; set-up: key: 0 = no effect, 100 = complete control; conditions: applied alone
Source text: Colby's Equation was used to calculate the expected additive herbicidal effect of the mixtures of Compound 6 with Harmony® Extra (i.e. a 2:1 mixture by weight of thifensulfuron-methyl and tribenuron-methyl). […]
Seeds of test plants consisting of barnyardgrass (ECHCG; Echinochloa crus-galli (L.) Beauv.), blackgrass (ALOMY; Alopecurus myosuroides Huds.), Surinam grass (BRADC; Urochloa decumbens (Staph) R. D. Webster, previously named Brachiaria decumbens Stapf), cocklebur (XANST, Xanthium strumarium L.), corn (ZEAMD, Zea mays L. cv. ‘Pioneer 33G26’), large crabgrass (DIGSA, Digitaria sanguinalis (L.) Scop.), giant foxtail (SETFA, Setaria faberi Herrm.), lambsquarters (CHEAL, Chenopodium album L.), morningglory (IPOCO, Ipomoea coccinea L.), pigweed (AMARE, Amaranthus retroflexus L.), velvetleaf (ABUTH, Abutilon theophrasti Medik.) wheat (TRZAS, Triticum aestivum L. cv. ‘Recital’) and wild oat (AVEFA, Avena fatua L.) were planted in Redi-Earth® planting medium (Scotts Company, 14111 Scottslawn Road, Marysville, Ohio 43041) comprising spaghnum peat moss and vermiculite. […] Also listed in Table J are the expected effects for the mixtures calculated using Colby's Equation.

kochia = assay: Test F pre-/postemergence herbicide test; type: in vivo, Kochia scoparia
Source text: Seeds of plant species selected from annual blugrass (Poa annua L.), blackgrass (Alopecurus myosuroides Huds.), catchweed bedstraw (Gallium aparine L.), common chickweed (Stellaria media (L.) Vill./Cyr.), downy bromegrass (Bromus tectorum L.), green foxtail (Setaria viridis (L.) Beauv.), Italian ryegrass (Lolium multiflorum Lam.), kochia (Kochia scoparia (L.). Schrad.), lambsquarters (Chenopodium album L.), littleseed canarygrass (Phalaris minor Retz.), pigweed (Amaranthus retroflexus L.), Russian thistle (Salsola kali L. ssp. Ruthenica (Iljin) Soo), wild buckwheat (Polygonum convolvulus L.), wild mustard (Sinapis arvensis L.), wild oat (Avena fatua L.), windgrass (Apera spica-venti (L.) Beauv.), winter barley (Hordeum vulgare L.), and wheat (Triticum aestivum L.) were planted and treated preemergence with test chemicals formulated in a non-phytotoxic solvent mixture which included a surfactant.
At the same time, plants selected from these crop and weed species were treated with postemergence applications of some of the test chemicals formulated in the same manner. Plants ranged in height from 2 to 18 cm (1- to 4-leaf stage) for postemergence treatments. Treated plants and controls were maintained in a greenhouse for 12 to 14 days, after which time all species were compared to controls and visually evaluated. Plant response ratings, summarized in Table F, are based on a scale of 0 to 100 where 0 is no effect and 100 is complete control. A dash (-) response means no test result.

CCn1nc(C(C)(C)C)cc1C(=O)Nc1cc(C(=O)N(C)C)ccc1F [Compound 6, N-[5-[(dimethylamino)carbonyl]-2-fluorophenyl]-3-(1,1-dimethylethyl)-1-ethyl-1H-pyrazole-5-carboxamide]
Response of wheat, With 1% naphthalic anhydride seed treatment (wheat cv. Retical; postemergence, 62 g a.i./ha): 65 | Response of wheat, Without naphthalic anhydride seed treatment (wheat cv. Retical; postemergence, 62 g a.i./ha): 75 | Response of wheat, With 1% naphthalic anhydride seed treatment (wheat cv. Retical; postemergence, 125 g a.i./ha): 75 | Response of wheat, Without naphthalic anhydride seed treatment (wheat cv. Retical; postemergence, 125 g a.i./ha): 75 | Response of wheat, With 1% naphthalic anhydride seed treatment (wheat cv. Retical; preemergence, 62 g a.i./ha): 77 | Response of wheat, Without naphthalic anhydride seed treatment (wheat cv. Retical; preemergence, 62 g a.i./ha): 99 | Response of wheat, With 1% naphthalic anhydride seed treatment (wheat cv. Retical; preemergence, 125 g a.i./ha): 100 | Response of wheat, Without naphthalic anhydride seed treatment (wheat cv. Retical; preemergence, 125 g a.i./ha): 100 | BRADC Obsd. (Surinam grass (BRADC); 62 g a.i./ha): 15 | BRADC Obsd. (Surinam grass (BRADC); 125 g a.i./ha): 40 | observed effect of mixture compared with additive effect expected from Colby's Equation (Surinam grass (BRADC); mixture with diuron): greater than additive | observed effect of mixture compared with additive effect expected from Colby's Equation (Surinam grass (BRADC); mixture with diuron, listed as compound 6): synergistic activity | observed effect of mixture compared with additive effect expected from Colby's Equation (Surinam grass (BRADC); mixture with hexazinone): greater than additive | observed effect of mixture compared with additive effect expected from Colby's Equation (Surinam grass (BRADC); mixture with hexazinone, listed as compound 6): synergistic activity | observed effect of mixture compared with additive effect expected from Colby's Equation (Surinam grass (BRADC); mixture with terbacil): greater than additive | AVEFA Obsd. (wild oat (AVEFA); 62 g a.i./ha): 10 | AVEFA Obsd. (wild oat (AVEFA); 125 g a.i./ha): 25

CCn1nc(C(C)(C)C)cc1C(=O)Nc1cc(C(=O)OC(C)C)c(F)cc1F [Compound 248]
Plant response rating (0-100), Kochia (kochia; Postemergence, 31 g ai/ha): 60 | Plant response rating (0-100), Kochia (kochia; Postemergence, 62 g ai/ha): 60 | Plant response rating (0-100), Kochia (kochia; Postemergence, 125 g ai/ha): 65 | Plant response rating (0-100), Kochia (kochia; Postemergence, 250 g ai/ha): 65 | Plant response rating (0-100), Kochia (kochia; Preemergence, 31 g ai/ha): 50 | Plant response rating (0-100), Kochia (kochia; Preemergence, 62 g ai/ha): 60 | Plant response rating (0-100), Kochia (kochia; Preemergence, 125 g ai/ha): 65 | Plant response rating (0-100), Kochia (kochia; Preemergence, 250 g ai/ha): 100
